Experimental data taken from PMC12881670, “Investigation into ligand selectivity and bias at the formyl peptide receptor family” (The Journal of Pharmacology and Experimental Therapeutics, 2025).
Where no end group is shown, it is not given here. [ ]: non-standard residue; d: D form. 5/6‑FAM = fluorescein

Legend:
[1] = molecular target: T1, Hs_FPR2 (Homo sapiens, UniProt P25090); assay: Competition binding of fluorescent WKYMVm, flow cytometry
T1 construct: expressed in transfected cells
T1 sequence (P25090 1-351): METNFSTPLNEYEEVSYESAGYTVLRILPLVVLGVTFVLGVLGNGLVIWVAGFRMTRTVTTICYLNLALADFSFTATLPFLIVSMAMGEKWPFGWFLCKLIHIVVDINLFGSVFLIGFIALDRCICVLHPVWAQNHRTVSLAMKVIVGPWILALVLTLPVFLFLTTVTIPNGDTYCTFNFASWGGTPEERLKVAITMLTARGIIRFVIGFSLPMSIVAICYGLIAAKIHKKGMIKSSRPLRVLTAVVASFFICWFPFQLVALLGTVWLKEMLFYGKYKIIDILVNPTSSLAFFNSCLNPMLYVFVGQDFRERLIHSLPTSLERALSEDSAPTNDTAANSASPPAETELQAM
Experimental: (§1) Mean cell fluorescence was then measured for 5000 cells by flow cytometry using either a BD FACScalibur or BD Attune.
(§2) All data were analyzed using GraphPad Prism using the nonlinear regression log(agonist) versus response (3 parameters) function for all assays, except binding, which was analyzed using the One site-FitlogIC50 function. Bias calculations were carried out following IUPHAR guidelines as described,[27]^,[37] and data were presented as the Δ Activity ratio (Log[EmaxB/EC50B])-(Log[EmaxA/EC50A]).

[2] = molecular target: T2, Mm_Fpr1 (Mus musculus, UniProt P33766); assay: as above
T2 construct: expressed in transfected cells
T2 sequence (P33766 1-364): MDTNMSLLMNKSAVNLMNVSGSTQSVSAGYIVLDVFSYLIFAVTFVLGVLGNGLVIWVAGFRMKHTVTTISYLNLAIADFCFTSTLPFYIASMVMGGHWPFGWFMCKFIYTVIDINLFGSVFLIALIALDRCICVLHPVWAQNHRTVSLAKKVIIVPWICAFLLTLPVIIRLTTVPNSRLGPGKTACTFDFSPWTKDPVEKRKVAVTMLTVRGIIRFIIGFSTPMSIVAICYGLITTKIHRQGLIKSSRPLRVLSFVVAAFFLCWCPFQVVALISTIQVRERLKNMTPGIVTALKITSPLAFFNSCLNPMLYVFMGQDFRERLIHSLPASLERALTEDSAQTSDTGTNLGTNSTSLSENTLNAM
Experimental: as §1, §2

[3] = molecular target: T1, Hs_FPR2; assay: BRET receptor-RLuc8 interaction with Venus-mGsi; assay type: cell-based
Experimental: (§3) BRET1 assays to measure FPR interaction with Venus-mGsi and Arrestin 3-yellow fluorescent protein (YFP) were performed as previously described.[31]^,[32] Briefly, all FPRs C-terminally fused to Renilla Luciferase (donor, RLuc8) were transiently transfected along with either Venus-mGsi or YFP-Arrestin 3 (acceptor) at a ratio of 1:4. 24 hours post transfection, cells were replated into white-walled, 96-well plates and cultured for a further 24–48 hours. On the day of experimentation, growth media was aspirated and replaced with 80 μl Hanks Buffered Saline Solution and equilibrated for 30 minutes. Coelenterazine h was added to each well to a final concentration of 5 μM for 5 minutes before the addition of each compound, and the plate was incubated for a further 10 minutes at 37 °C before being read on a ClarioStar Plus, with luminescence measured at 480/20 nm (donor) and 530/20 (acceptor). The BRET ratio (acceptor/donor) was determined, and the background (untreated) subtracted to give the N-BRET value.
as §2

[4] = molecular target: T2, Mm_Fpr1; assay: BRET receptor-RLuc8 interaction with Venus-mGsi; assay type: cell-based
Experimental: as §3, §2

[5] = molecular target: T3, Mm_Fpr2 (Mus musculus, UniProt O88536); assay: BRET receptor-RLuc8 interaction with Venus-mGsi; assay type: cell-based
T3 construct: expressed in transfected cells
T3 sequence (O88536 1-351): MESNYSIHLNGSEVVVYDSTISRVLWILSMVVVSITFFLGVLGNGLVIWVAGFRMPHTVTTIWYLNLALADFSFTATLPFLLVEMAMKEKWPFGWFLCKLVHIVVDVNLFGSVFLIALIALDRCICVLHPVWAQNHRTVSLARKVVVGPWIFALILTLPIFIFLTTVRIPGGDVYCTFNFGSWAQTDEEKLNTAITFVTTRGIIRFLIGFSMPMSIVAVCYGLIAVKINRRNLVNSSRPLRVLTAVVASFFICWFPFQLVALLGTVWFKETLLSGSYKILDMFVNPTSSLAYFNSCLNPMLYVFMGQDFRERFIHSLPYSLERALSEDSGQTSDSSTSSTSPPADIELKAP
Experimental: as §3, §2

[6] = molecular target: T1, Hs_FPR2; assay: ERK1/2 phosphorylation by Western blotting; assay type: cell-based
Experimental: (§4) ERK phosphorylation was detected by Western blotting as previously described.[30] Briefly, HEK293 cells stably expressing FLAG-tagged FPRs were plated into 12-well culture plates until 90% confluent. On the day of the experiment, culture media was replaced with serum-free Dulbecco’s modified Eagle’s medium and incubated for 2 hours before stimulation with the indicated compounds. After 7 minutes, the media was removed and stimulation terminated by the addition of 100 μl sample buffer (0.5% SDS, Tris (pH 6.8), glycerol, at >90 °C).
as §2

[7] = molecular target: T2, Mm_Fpr1; assay: ERK1/2 phosphorylation by Western blotting; assay type: cell-based
Experimental: as §4, §2

[8] = molecular target: T2, Mm_Fpr1; assay: BRET receptor-RLuc8 interaction with Arrestin 3-YFP; assay type: cell-based
Experimental: as §3, §2

[9] = molecular target: T3, Mm_Fpr2; assay: as above; assay type: cell-based
Experimental: as §3, §2

[10] = molecular target: T1, Hs_FPR2; assay: Internalization of FLAG-tagged receptors by flow cytometry; assay type: cell-based; design: Emax: dose or concentration left out as unconfirmed
Experimental: Internalization of FPRs was measured by flow cytometry.[30] Briefly, cells were incubated with Alexa Fluor 657 conjugated M1 antiflag antibody (Sigma-Aldrich Cat# F3040, RRID:AB_439712) for 30 minutes at 37 °C to label surface receptors. Cells were then incubated with the indicated concentration of ligand before washing in PBS/0.04% EDTA to remove any remaining surface antibody. Remaining fluorescence was then measured using flow cytometry on either a BD FACScalibur or Attune, recording 5000 gated events. […] As a control, some samples were left untreated, and “strip only” was measured as a readout of constitutive endocytosis, and this value was subtracted from the data.
as §2

[11] = molecular target: T2, Mm_Fpr1; assay: as above; assay type: cell-based; design: Emax: dose or concentration left out as unconfirmed
Experimental: (§5) Internalization of FPRs was measured by flow cytometry.[30] Briefly, cells were incubated with Alexa Fluor 657 conjugated M1 antiflag antibody (Sigma-Aldrich Cat# F3040, RRID:AB_439712) for 30 minutes at 37 °C to label surface receptors. Cells were then incubated with the indicated concentration of ligand before washing in PBS/0.04% EDTA to remove any remaining surface antibody. Remaining fluorescence was then measured using flow cytometry on either a BD FACScalibur or Attune, recording 5000 gated events. […] As a control, some samples were left untreated, and “strip only” was measured as a readout of constitutive endocytosis, and this value was subtracted from the data. Vehicle control (0.1% DMSO) had no effect on internalization of receptors.
as §2

[12] = molecular target: T3, Mm_Fpr2; assay: as above; assay type: cell-based; design: Emax: dose or concentration left out as unconfirmed
Experimental: as §5, §2

[13] = maximum proportion of competition with 10 nM K(5/6-FAM)-WKYMVm, mean, ND = no competition observed

Molecule	Max Comp (%) [1, 13]	IC50 [2]	Max Comp (%) [2, 13]	Emax [3]	EC50 [4]	Emax [4]	EC50 [5]	Emax [5]	Emax [6]	Emax [7]	EC50 ([7]; log of EC50, phosphorylation of ERK1/2, HEK293 stable cells, mean, ND = no pERK signal detected)	EC50 [8]	Emax [8]	EC50 [9]	Emax [9]	Emax [10]	EC50 [11]	Emax [11]	Emax [12]	Kd, saturable binding ([1]; hFPR2, initial studies (not shown))
CSCC[C@H](NC=O)C(=O)N[C@@H](CC(C)C)C(=O)N[C@@H](Cc1ccccc1)C(=O)O [fMLF, fMet-Leu-Phe]	3.4%	3.18 µM	45.65%	61.7%	11.7 µM	59.3%	26.3 µM	13.2%	40.2%	72.7%	2270 nM	20.9 µM	83.4%	19.5 µM	22.7%	0.343%	4.48 µM	92.5%	54.4%	–
K(5/6-FAM)-WKYMVm-NH2 (K(5/6‑FAM)WKYMV[dM]-NH2)	–	–	–	–	–	–	–	–	–	–	–	–	–	–	–	–	–	–	–	low nM range
